These results are taken from US8450525B2, “Histone deacetylase inhibitors” (Orchid Chemicals & Pharmaceuticals Limited, priority 2007, dated 2013).

The subject of test [1] is HCT 116 (colon) cells. The experiment in a line: Anti-cancer screen, growth inhibition (MTT). In kind it is cell-based. The note with it: Homo sapiens, HCT-116 cells, 48 hours of incubation. The essentials: (§1)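 MTT added for 3 h at 37° C, formazan dissolved in DMSO and A570 read. A T0 plate was measured at compound addition.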
The subject of test [2] is NCI-H460 (lung) cells. The experiment in a line: Anti-cancer screen, growth inhibition (MTT). The format is cell-based. The settings on record: Homo sapiens, 48 hours of incubation. The essentials: as §1
The test system of test [3] is U251 (glioma) cells. The experiment in a line: Anti-cancer screen, growth inhibition (MTT). The format is cell-based. The note with it: Homo sapiens, U-251 cells, 48 hours of incubation. The essentials: as §1
The target in test [4] is T1, HDAC (Mouse Liver Extract).
T1 construct: Mouse liver enzyme (10 mg/ml) was diluted 1:6 with HDAC buffer
The experiment in a line: HDAC inhibition assay using Boc-Lys(Ac)-AMC substrate, mouse liver enzyme. The format is biochemical.

Test [5] addresses T2, recombinant HDAC1 enzyme (Homo sapiens, UniProt Q13547).
T2 construct: purchased BIOMOL, USA
The experiment in a line: HDAC1 inhibitory activity, recombinant enzyme. In kind it is biochemical. The settings on record: recombinant HDAC1 (BIOMOL); read-out: HDAC1 inhibition (IC50). On the procedure: Assay was done in 96-well black microplate and total volume of the assay was 100 μL. Mouse liver enzyme (10 mg/ml) was diluted 1:6 with HDAC buffer. Enzyme cocktail was made of 10 μL of diluted enzyme and 30 μL of HDAC buffer. 40 μl of enzyme cocktail followed by 10 μL of test compound (1 μM and 10 μM) or buffer (control) was added to each well. The plate was pre-incubated at 37° C. for 5 minutes. The HDAC reaction was started by adding 50 μl of HDAC substrate Boc-Lys (Ac)-AMC (Bachem AG, Switzerland). The plate was incubated at 37° C. for 30 minutes. The reaction was stopped by adding 100 μL of Trypsin stop solution and incubating at 37° C. for 15-30 minutes. Measuring the fluorescence at excitation wavelength of 360 nm and emission wavelength of 460 nm monitored the release of AMC. Buffer alone and substrate alone served as blank. […] (Dennis Wegener et al, Anal. Biochem, 321, 2003, 202-208).
Since the benzamide type compounds are known to have potential for HDAC class 1 specificity, active compounds were tested for HDAC1 inhibitory activity. The assay was carried out, as previously described using recombinant HDAC1 enzyme (BIOMOL, USA) and following manufacturer's instructions.

Molecules are shown by their SMILES.

T2 sequence (Q13547 whole entry): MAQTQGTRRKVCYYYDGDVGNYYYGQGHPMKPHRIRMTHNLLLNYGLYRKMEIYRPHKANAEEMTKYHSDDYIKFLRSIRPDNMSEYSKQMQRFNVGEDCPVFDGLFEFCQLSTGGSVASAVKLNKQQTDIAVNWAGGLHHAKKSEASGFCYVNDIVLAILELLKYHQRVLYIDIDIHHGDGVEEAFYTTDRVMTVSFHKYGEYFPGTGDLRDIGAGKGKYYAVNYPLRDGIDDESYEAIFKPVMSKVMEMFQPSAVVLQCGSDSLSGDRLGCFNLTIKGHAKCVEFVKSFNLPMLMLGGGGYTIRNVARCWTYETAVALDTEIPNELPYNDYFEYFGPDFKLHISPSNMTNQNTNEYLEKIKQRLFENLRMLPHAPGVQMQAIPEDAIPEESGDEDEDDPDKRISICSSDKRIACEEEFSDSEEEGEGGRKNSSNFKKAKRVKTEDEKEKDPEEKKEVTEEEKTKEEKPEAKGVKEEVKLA

For the molecule `Nc1ccccc1NC(=O)c1ccc(C=C(C(=O)NC2CC2)c2ccccc2)cc1` [Example 107, N-(2-Aminophenyl)-4-(3-(cyclopropylamino)-2-phenyl-3-oxoprop-1-en-1-yl)benzamide], the GI50 in test [1] was 2 µM; in test [2], 5 µM; in test [3] it was 4.5 µM. For the same molecule, the IC50 in test [4] was 12 µM; in test [5], 0.18 µM. In addition, the “HDAC Inhibition % (1 μM)” value in test [4] is recorded as 34.1%. For the same molecule, the “HDAC Inhibition % (10 μM)” value in test [4] worked out at 58.4%.
As to `Nc1ccccc1NC(=O)c1ccc(/C=C(/CNC2CC2)c2ccc(F)cc2)cc1` [Example 144, N-(2-Aminophenyl)-4-(3-(cyclopropylamino)-2-(4-fluorophenyl)prop-1-en-1-yl)benzamide], the figures for the concentration for 50% growth inhibition (GI50) in test [1], in test [2] and in test [3] were 5.5 µM, 10 µM and 8 µM, respectively. The “HDAC Inhibition % (1 μM)” value in test [4] worked out at 36.3%. In test [4], the “HDAC Inhibition % (10 μM)” value is recorded as 62.3%.
For `O=C(/C=C/c1ccc(CNC(=O)c2ccc(/C=C(/C(=O)NC3CC3)c3ccc4c(c3)OCO4)cc2)cc1)NO` [Example 147, 4-(3-(Cyclopropylamino)-2-[benzodioxol-5-yl]-3-oxoprop-1-en-1-yl)-N-(4-((E)-3-(hydroxyamino)-3-oxoprop-1-en-1-yl)benzyl)benzamide], the GI50 in test [1] turned out to be 20 µM; in test [2] it was 95 µM; in test [3] it was 19 µM. Also, the “HDAC Inhibition % (1 μM)” value in test [4] was 94.6%. Besides, in test [4], the “HDAC Inhibition % (10 μM)” value is reported as 100.0%.
As for `Cc1ccc(/C(=C\c2ccc(C(=O)NCc3ccc(C(=O)NO)cc3)cc2)C(=O)NC2CC2)cc1` [Example 148, 4-(3-(Cyclopropylamino)-2-(4-methylphenyl)-3-oxoprop-1-en-1-yl)-N-(4-(hydroxycarbamoyl)benzyl)benzamide], the GI50 in test [1] came to 2 µM; in test [2] it was 0.1 µM; in test [3], 0.08 µM. Further, in test [4], the IC50 worked out at 0.022 µM. Further, the “HDAC Inhibition % (1 μM)” value in test [4] is given as 86.9%. The “HDAC Inhibition % (10 μM)” value in test [4] was found to be 97.8%.
`O=C(NC1CC1)/C(=C/c1ccc(C(=O)NCc2ccc(C(=O)NO)cc2)cc1)c1ccccc1` [Example 149, 4-(3-(Cyclopropylamino)-2-phenyl-3-oxoprop-1-en-1-yl)-N-(4-(hydroxycarbamoyl)benzyl)benzamide]: the results for the GI50 in test [1], in test [2] and in test [3] were 12 µM, 52 µM and 12 µM, respectively. The “HDAC Inhibition % (1 μM)” value in test [4] came out at 61.7%. In addition, the “HDAC Inhibition % (10 μM)” value in test [4] is reported as 88.0%.
Take `O=C(NC1CC1)/C(=C/c1ccc(C(=O)NCc2ccc(C(=O)NO)cc2)cc1)c1ccc(F)cc1` [Example 152, 4-(3-(Cyclopropylamino)-2-(4-fluorophenyl)-3-oxoprop-1-en-1-yl)-N-(4-(hydroxycarbamoyl)benzyl)benzamide]: the GI50 was 30 µM in test [1], 25 µM in test [2] and 22 µM in test [3]. The “HDAC Inhibition % (1 μM)” value in test [4] was determined as 88.7%. In addition, the “HDAC Inhibition % (10 μM)” value in test [4] is listed as 98.0%.
Turning to `O=C(NC1CC1)/C(=C/c1ccc(C(=O)NCc2ccc(C(=O)NO)cc2)cc1)c1cccc(Cl)c1` [Example 153, 4-(3-(Cyclopropylamino)-2-(3-chlorophenyl)-3-oxoprop-1-en-1-yl)-N-(4-(hydroxycarbamoyl)benzyl)benzamide], the results for the GI50 in test [1], in test [2] and in test [3] were 10.2 µM, 19 µM and 21 µM, respectively. Also, the “HDAC Inhibition % (1 μM)” value in test [4] is 87.5%. Further, the “HDAC Inhibition % (10 μM)” value in test [4] was 97.1%.
For `COc1ccc(/C(=C\c2ccc(C(=O)NCc3ccc(C(=O)NO)cc3)cc2)C(=O)NC2CC2)cc1` [Example 154, 4-(3-(Cyclopropylamino)-2-(4-methoxyphenyl)-3-oxoprop-1-en-1-yl)-N-(4-(hydroxycarbamoyl)benzyl)benzamide], in that order: 27 µM, 33 µM, 20 µM, 87.2% and 97.5%.
Consider `O=C(NC1CC1)/C(=C/c1ccc(C(=O)NCc2ccc(C(=O)NO)cc2)cc1)c1ccc(F)cc1Cl` [Example 155, 4-(3-(Cyclopropylamino)-2-(2-chloro-4-fluorophenyl)-3-oxoprop-1-en-1-yl)-N-(4-(hydroxycarbamoyl)benzyl)benzamide], for which the GI50 in test [1] came to 30 µM; in test [2], 16 µM; in test [3] it was 26 µM. Besides, the “HDAC Inhibition % (1 μM)” value in test [4] is listed as 88.8%. Also, the “HDAC Inhibition % (10 μM)” value in test [4] was found to be 99.3%.
Turning to `O=C(NC1CC1)/C(=C/c1ccc(C(=O)NCc2ccc(C(=O)NO)cc2)cc1)c1cccc(F)c1` [Example 156, 4-(3-(Cyclopropylamino)-2-(3-fluorophenyl)-3-oxoprop-1-en-1-yl)-N-(4-(hydroxycarbamoyl)benzyl)benzamide], the 50% growth inhibitory concentration (GI50) in test [1], in test [2] and in test [3] was 26 µM each time. In addition, the “HDAC Inhibition % (1 μM)” value in test [4] stood at 88.4%. In addition, the “HDAC Inhibition % (10 μM)” value in test [4] was 98.1%.
As for `O=C(NC1CC1)/C(=C/c1ccc(C(=O)NCc2ccc(C(=O)NO)cc2)cc1)c1ccc2c(c1)OCO2` [Example 157, 4-(3-(Cyclopropylamino)-2-[benzodioxol-5-yl]-3-oxoprop-1-en-1-yl)-N-(4-(hydroxycarbamoyl)benzyl)benzamide], the GI50 in test [1] was found to be 19 µM; in test [2], 18 µM; in test [3], 60 µM. Besides, the “HDAC Inhibition % (1 μM)” value in test [4] is 82.2%. For the same molecule, in test [4], the “HDAC Inhibition % (10 μM)” value is given as 96.6%.
Turning to `O=C(NC1CC1)/C(=C/c1ccc(C(=O)NCc2ccc(C(=O)NO)cc2)cc1)c1ccc(C(F)(F)F)cc1` [Example 158, 4-(3-(Cyclopropylamino)-2-(4-trifluoromethylphenyl)-3-oxoprop-1-en-1-yl)-N-(4-(hydroxycarbamoyl)benzyl)benzamide], the GI50 in test [1] came out at 30 µM; in test [2], 25 µM; in test [3], 22 µM. In test [4], the “HDAC Inhibition % (1 μM)” value is given as 88.7%. Further, the “HDAC Inhibition % (10 μM)” value in test [4] stood at 98.0%.
Turning to `O=C(NC1CC1)/C(=C/c1ccc(C(=O)NCc2ccc(C(=O)NO)cc2)cc1)c1ccc(F)c(F)c1` [Example 159, 4-(3-(Cyclopropylamino)-2-(3,4-difluorophenyl)-3-oxoprop-1-en-1-yl)-N-(4-(hydroxycarbamoyl)benzyl)benzamide], the GI50 turned out to be 12 µM in test [1], 20 µM in test [2] and 11 µM in test [3]. The “HDAC Inhibition % (1 μM)” value in test [4] amounted to 89.3%. The “HDAC Inhibition % (10 μM)” value in test [4] is 97.0%.
`O=C(CCCCCNC(=O)c1ccc(/C=C(/C(=O)NC2CC2)c2ccccc2)cc1)NO` [Example 161]: the GI50 in test [1] was 8.2 µM; in test [2], 5.3 µM; in test [3], 3.2 µM. The same molecule showed an IC50 in test [4] of 0.006 µM. The “HDAC Inhibition % (1 μM)” value in test [4] is given as 87.8%. In test [4], the “HDAC Inhibition % (10 μM)” value came out at 97.5%.
Turning to `Cc1ccc(/C(=C\c2ccc(C(=O)NCCCCCC(=O)NO)cc2)C(=O)NC2CC2)cc1` [Example 162, 4-(3-(Cyclopropylamino)-2-(4-methylphenyl)-3-oxoprop-1-en-1-yl)-N-(6-(hydroxyamino)-6-oxohexyl)benzamide], the GI50 in test [1] is 19 µM; in test [2], 46 µM; in test [3] it was 2 µM. Besides, in test [4], the “HDAC Inhibition % (1 μM)” value was 86.1%. Moreover, the “HDAC Inhibition % (10 μM)” value in test [4] turned out to be 95.7%.
For `O=C(CCCCCNC(=O)c1ccc(/C=C(/C(=O)NC2CC2)c2ccccc2F)cc1)NO` [Example 163, 4-(3-(Cyclopropylamino)-2-(2-fluorophenyl)-3-oxoprop-1-en-1-yl)-N-(6-(hydroxyamino)-6-oxohexyl)benzamide], in that order: 32 µM, 10 µM, 41 µM, 81.7% and 97.7%.
Take `O=C(CCCCCNC(=O)c1ccc(/C=C(/C(=O)NC2CC2)c2cccc(F)c2)cc1)NO` [Example 164, 4-(3-(Cyclopropylamino)-2-(3-fluorophenyl)-3-oxoprop-1-en-1-yl)-N-(6-(hydroxyamino)-6-oxohexyl)benzamide]: the GI50 in test [1] was determined as 15 µM; in test [2] it was 28 µM; in test [3] it was 30 µM. In addition, the “HDAC Inhibition % (1 μM)” value in test [4] was determined as 91.9%. In addition, the “HDAC Inhibition % (10 μM)” value in test [4] came to 100.0%.
For the molecule `O=C(CCCCCCC(=O)Nc1ccc(/C=C(/C(=O)NC2CC2)c2ccc(F)cc2)cc1)NO` [Example 165, N-(4-(3-(Cyclopropylamino)-2-(4-fluorophenyl)-3-oxoprop-1-en-1-yl)phenyl)-N′-hydroxyoctanediamide], the concentration for 50% growth inhibition (GI50) in test [1] was 5.6 µM; in test [2], 15 µM; in test [3], 11 µM. Further, the “HDAC Inhibition % (1 μM)” value in test [4] amounted to 91.5%. The “HDAC Inhibition % (10 μM)” value in test [4] was found to be 96.8%.
